Calls of active or inactive are those of the source. No cut-off for these calls is given here.
What was measured:
[1] = target: MAP kinase-activated protein kinase 2 (Homo sapiens) (UniProt P49137); assay: Inhibition of MAPKAP-K2 at 10 uM
[2] = target: Tyrosine-protein kinase SYK (Homo sapiens, UniProt P43405); assay: Inhibition of Syk
[3] = target: Glycogen synthase kinase-3 beta (Homo sapiens) (UniProt P49841); assay: Inhibition of GSK3-beta at 10 uM
[4] = target: Mitogen-activated protein kinase 14 (Homo sapiens) (UniProt Q16539); assay: Inhibition of p38alpha at 10 uM
Sequence of Mitogen-activated protein kinase 14 (Homo sapiens) (Q16539 whole entry): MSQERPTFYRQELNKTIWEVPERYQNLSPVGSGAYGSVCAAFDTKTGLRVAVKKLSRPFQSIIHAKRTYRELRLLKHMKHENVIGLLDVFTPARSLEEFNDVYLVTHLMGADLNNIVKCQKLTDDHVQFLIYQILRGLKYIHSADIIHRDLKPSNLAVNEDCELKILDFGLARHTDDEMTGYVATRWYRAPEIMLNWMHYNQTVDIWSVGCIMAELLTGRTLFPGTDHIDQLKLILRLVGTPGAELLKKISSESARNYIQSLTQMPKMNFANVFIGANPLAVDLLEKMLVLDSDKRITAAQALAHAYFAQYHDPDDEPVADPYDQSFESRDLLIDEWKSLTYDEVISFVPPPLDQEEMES

Insulin receptor = Insulin receptor (Homo sapiens, UniProt P06213); assay: Inhibition of IR
Mus musculus [5] = assay: Inhibition of LPS-induced TNFalpha production in mouse at 30 mg/kg, po administered 60 mins before LPS challenge; format: functional
[6] = Inhibition of AMPK at 10 uM
[7] = target: Rho-associated protein kinase 2 (Homo sapiens) (UniProt O75116); assay: Inhibition of ROCK-2 at 10 uM
HeLa = assay: Inhibition of TNF-alpha-induced NF-kappaB transfected in human HeLa cells preincubated for 30 mins before TNFalpha challenge after 6 hrs by luciferase reporter gene assay; format: cell-based
[8] = target: T1, Serine/threonine-protein kinase Chk1 (Homo sapiens) (UniProt O14757); assay: Inhibition of CHK1 at 10 uM
T1 sequence (whole entry): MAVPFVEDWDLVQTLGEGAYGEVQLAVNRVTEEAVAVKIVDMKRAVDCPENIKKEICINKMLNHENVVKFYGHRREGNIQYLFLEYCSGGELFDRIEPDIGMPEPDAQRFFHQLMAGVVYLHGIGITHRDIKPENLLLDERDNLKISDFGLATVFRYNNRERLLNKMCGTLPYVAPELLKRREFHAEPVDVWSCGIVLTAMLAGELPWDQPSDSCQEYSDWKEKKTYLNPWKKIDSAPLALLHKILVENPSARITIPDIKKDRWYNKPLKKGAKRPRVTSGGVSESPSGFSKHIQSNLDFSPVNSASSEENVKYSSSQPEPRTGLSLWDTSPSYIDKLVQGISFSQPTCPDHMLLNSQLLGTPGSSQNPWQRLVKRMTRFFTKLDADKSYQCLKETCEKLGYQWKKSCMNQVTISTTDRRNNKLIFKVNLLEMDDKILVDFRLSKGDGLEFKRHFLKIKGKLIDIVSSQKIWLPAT

[9] = Plasma concentration in mouse at 100 mg/kg, po after 120 mins; format: ADME, organism-based; set-up: dose 100 mg/kg, route oral
[10] = target: T2, Tyrosine-protein kinase ITK/TSK (Homo sapiens, UniProt Q08881); assay: Inhibition of Itk
T2 sequence (Q08881 whole entry): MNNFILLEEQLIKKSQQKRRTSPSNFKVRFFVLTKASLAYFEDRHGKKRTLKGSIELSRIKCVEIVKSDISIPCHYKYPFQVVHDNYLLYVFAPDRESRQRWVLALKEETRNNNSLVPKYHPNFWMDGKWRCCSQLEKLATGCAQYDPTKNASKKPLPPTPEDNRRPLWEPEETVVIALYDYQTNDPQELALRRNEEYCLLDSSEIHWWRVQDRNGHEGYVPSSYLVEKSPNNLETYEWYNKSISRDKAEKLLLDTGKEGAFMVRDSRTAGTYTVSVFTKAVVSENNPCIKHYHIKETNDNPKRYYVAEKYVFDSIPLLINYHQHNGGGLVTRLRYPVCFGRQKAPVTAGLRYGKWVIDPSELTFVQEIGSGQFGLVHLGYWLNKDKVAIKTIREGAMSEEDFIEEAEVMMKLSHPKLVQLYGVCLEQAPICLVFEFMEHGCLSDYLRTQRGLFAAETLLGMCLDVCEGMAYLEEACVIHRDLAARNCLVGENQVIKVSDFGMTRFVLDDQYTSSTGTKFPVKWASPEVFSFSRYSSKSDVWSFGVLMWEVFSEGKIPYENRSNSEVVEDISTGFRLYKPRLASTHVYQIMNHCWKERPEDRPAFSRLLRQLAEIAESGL

[11] = target: Fibroblast growth factor receptor 3 (Homo sapiens, UniProt P22607); assay: Inhibition of FGFR3
Sequence of Fibroblast growth factor receptor 3 (P22607 whole entry): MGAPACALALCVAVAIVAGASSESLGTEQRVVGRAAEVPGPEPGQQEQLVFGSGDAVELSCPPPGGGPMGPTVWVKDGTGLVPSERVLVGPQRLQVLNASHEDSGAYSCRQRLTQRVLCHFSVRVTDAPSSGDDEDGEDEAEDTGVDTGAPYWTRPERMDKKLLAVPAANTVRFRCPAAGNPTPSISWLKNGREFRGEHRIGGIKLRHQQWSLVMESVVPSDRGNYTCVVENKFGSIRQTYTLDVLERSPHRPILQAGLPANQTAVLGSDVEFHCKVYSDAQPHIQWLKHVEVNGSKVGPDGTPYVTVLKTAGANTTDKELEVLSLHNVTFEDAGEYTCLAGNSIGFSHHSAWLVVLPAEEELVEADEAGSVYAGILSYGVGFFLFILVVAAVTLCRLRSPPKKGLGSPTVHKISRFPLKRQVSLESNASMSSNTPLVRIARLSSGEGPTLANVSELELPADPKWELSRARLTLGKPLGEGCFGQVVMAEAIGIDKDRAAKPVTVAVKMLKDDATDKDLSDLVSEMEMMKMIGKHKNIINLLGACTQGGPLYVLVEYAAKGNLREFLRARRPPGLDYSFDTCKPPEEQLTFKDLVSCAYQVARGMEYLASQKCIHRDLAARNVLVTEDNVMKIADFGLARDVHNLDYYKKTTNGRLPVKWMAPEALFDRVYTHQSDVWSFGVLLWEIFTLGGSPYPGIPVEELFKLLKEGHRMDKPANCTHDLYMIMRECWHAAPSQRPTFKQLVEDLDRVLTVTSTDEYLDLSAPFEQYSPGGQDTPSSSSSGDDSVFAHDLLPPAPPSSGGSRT

[12] = target: Dual specificity tyrosine-phosphorylation-regulated kinase 1A (Homo sapiens) (UniProt Q13627); assay: Inhibition of DYRK1a at 10 uM
[13] = target: Tyrosine-protein kinase CSK (Homo sapiens) (UniProt P41240); assay: Inhibition of CSK at 10 uM
Sequence of Tyrosine-protein kinase CSK (Homo sapiens) (P41240 2-450 limits assumed): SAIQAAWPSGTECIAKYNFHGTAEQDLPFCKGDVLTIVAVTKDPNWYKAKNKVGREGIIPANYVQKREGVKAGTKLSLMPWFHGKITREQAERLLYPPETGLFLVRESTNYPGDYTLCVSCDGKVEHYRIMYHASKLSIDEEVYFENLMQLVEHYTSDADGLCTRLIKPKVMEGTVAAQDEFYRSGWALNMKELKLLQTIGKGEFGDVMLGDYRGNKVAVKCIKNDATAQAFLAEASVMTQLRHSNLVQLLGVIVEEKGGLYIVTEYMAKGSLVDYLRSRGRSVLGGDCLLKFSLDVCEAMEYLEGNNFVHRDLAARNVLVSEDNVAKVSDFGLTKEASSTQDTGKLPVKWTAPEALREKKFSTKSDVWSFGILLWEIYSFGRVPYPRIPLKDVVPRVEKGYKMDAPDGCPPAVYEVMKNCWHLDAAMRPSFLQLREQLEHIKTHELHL

Blood = assay: Inhibition of LPS-induced TNFalpha production in human whole blood; format: functional, tissue-based
[14] = target: Platelet-derived growth factor receptor alpha (Homo sapiens, UniProt P16234); assay: Inhibition of PDGFRalpha
Sequence of Platelet-derived growth factor receptor alpha (P16234 whole entry): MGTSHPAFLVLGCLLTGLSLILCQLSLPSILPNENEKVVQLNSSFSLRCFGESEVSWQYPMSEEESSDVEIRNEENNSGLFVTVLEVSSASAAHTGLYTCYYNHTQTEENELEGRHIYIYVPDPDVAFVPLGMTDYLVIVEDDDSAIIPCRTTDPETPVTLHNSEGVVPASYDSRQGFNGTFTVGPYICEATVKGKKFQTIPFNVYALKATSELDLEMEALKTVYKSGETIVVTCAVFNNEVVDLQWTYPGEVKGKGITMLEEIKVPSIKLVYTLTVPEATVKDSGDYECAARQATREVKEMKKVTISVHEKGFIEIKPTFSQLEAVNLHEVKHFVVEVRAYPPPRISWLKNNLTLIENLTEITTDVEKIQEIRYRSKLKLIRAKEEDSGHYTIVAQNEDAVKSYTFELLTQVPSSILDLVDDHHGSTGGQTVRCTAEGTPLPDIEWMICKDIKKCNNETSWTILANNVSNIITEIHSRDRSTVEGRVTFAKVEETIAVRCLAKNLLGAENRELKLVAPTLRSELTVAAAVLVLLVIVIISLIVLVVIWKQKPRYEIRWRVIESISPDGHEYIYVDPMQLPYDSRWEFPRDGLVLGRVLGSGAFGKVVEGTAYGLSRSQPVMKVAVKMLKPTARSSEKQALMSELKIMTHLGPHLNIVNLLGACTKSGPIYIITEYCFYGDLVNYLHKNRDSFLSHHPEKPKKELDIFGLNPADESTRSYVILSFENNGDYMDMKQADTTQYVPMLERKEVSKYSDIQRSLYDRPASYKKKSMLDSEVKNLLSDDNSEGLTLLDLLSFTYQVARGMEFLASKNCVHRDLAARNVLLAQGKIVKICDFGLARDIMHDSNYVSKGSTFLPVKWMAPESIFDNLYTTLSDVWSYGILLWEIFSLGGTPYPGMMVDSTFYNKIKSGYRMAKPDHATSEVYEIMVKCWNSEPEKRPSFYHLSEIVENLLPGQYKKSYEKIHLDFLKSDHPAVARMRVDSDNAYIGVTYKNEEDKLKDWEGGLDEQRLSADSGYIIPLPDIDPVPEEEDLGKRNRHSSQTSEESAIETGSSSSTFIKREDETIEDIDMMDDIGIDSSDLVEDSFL

[15] = target: Ribosomal protein S6 kinase beta-1 (Homo sapiens) (UniProt P23443); assay: Inhibition of S6K1 at 10 uM
Sequence of Ribosomal protein S6 kinase beta-1 (Homo sapiens) (P23443 whole entry, looked up): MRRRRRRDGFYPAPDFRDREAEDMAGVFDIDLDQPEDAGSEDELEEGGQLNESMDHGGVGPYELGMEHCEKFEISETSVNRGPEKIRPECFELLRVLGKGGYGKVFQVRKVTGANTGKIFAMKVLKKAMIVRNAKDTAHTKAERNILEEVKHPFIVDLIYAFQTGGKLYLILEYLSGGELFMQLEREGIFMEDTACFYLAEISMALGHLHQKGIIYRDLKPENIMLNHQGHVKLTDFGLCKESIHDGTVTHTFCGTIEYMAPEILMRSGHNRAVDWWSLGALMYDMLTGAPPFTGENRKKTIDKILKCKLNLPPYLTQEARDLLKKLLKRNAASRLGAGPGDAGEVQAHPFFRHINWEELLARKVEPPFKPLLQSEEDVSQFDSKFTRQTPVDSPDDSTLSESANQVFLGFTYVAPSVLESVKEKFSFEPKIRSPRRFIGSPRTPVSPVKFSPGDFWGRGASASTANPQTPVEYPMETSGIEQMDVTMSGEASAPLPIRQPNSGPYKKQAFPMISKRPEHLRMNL

[16] = target: T3, MAP kinase-activated protein kinase 5 (Homo sapiens) (UniProt Q8IW41); assay: Inhibition of PRAK at 10 uM
T3 sequence (whole entry): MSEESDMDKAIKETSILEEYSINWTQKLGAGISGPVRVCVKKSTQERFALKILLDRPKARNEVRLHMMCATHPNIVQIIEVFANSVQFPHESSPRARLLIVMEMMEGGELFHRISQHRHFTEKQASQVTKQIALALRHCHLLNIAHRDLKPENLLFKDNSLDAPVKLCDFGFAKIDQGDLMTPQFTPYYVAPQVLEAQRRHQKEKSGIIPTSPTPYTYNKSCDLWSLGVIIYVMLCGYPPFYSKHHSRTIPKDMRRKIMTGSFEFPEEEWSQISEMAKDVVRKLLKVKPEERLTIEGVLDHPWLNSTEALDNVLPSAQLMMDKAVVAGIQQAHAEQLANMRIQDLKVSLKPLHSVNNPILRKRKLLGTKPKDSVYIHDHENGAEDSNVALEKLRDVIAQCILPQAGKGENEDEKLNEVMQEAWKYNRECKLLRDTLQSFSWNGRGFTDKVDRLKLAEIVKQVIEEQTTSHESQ

[17] = target: Ribosomal protein S6 kinase alpha-5 (Homo sapiens) (UniProt O75582); assay: Inhibition of MSK1 at 10 uM
Sequence of Ribosomal protein S6 kinase alpha-5 (Homo sapiens) (O75582 whole entry, looked up): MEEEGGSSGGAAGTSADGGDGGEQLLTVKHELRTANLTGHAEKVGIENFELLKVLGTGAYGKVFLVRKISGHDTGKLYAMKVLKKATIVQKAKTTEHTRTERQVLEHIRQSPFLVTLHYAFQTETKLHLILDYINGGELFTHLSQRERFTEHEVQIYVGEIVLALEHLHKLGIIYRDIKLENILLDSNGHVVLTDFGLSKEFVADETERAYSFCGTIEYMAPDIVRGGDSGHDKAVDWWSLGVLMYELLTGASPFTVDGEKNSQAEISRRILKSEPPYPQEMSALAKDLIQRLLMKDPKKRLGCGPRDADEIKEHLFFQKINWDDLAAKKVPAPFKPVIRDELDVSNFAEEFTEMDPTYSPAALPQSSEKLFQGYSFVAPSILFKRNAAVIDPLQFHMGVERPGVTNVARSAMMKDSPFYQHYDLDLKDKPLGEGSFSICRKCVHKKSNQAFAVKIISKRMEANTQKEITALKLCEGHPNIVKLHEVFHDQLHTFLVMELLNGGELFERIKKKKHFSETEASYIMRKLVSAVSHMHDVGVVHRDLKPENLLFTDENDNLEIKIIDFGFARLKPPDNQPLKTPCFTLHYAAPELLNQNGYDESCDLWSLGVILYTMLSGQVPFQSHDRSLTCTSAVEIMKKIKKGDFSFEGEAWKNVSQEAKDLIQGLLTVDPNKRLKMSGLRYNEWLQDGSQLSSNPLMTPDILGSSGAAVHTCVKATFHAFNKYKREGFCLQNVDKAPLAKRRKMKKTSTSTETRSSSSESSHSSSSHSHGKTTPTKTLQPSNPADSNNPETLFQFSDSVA

Mus musculus [18] = assay: Inhibition of LPS-induced TNFalpha production in mouse at 100 mg/kg, po administered 60 mins before LPS challenge; format: functional

Sequence of Glycogen synthase kinase-3 beta (Homo sapiens) (P49841 whole entry, looked up): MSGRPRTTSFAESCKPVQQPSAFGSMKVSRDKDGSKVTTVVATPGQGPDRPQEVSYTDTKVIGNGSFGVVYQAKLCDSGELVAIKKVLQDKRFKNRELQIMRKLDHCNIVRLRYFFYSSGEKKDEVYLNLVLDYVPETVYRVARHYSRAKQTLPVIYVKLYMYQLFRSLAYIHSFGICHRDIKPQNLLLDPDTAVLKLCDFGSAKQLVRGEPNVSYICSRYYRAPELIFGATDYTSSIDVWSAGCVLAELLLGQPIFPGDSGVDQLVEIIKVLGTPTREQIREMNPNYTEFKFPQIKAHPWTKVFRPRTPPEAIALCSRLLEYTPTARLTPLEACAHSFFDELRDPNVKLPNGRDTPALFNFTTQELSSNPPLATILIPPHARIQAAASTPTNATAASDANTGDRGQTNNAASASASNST
Sequence of MAP kinase-activated protein kinase 2 (Homo sapiens) (P49137 whole entry, looked up): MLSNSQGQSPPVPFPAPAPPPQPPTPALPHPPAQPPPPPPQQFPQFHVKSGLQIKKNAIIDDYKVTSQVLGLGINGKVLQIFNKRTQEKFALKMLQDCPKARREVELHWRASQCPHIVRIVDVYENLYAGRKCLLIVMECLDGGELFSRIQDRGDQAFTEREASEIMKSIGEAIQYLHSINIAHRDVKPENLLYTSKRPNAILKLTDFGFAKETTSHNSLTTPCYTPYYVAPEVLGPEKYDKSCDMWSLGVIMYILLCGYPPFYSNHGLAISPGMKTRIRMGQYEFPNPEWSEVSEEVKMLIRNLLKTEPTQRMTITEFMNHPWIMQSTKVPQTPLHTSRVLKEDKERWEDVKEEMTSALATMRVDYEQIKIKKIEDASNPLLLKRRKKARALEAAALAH

| Activity [1] | IC50 [2] | Activity [3] | Activity [4] | Activity [6] | Activity [7] | IC50 (HeLa) | Activity [8] | concentration at 2 h [9] | IC50 [10] | IC50 [11] | Activity [12] | Activity [13] | IC50 (Blood) | IC50 [14] | Activity [15] | Activity [16] | Activity [17] | Structure (SMILES) | inhibition in vivo at 30 mg/kg (Mus musculus [5]) | inhibition in vivo at 100 mg/kg (Mus musculus [18]) | other results |
| --- | --- | --- | --- | --- | --- | --- | --- | --- | --- | --- | --- | --- | --- | --- | --- | --- | --- | --- | --- | --- | --- |
| inactive | > 7 µM | inactive | inactive | inactive | inactive | 5.3 µM | inactive | 42.3 µM | > 7 µM | > 7 µM | inactive | inactive | 9.8 µM | > 7 µM | inactive | inactive | inactive | CCCc1cc(N2CCC(O)CC2)nc2sc(C(N)=O)c(N)c12 | 94% | 98% | IC50 (Insulin receptor): > 7 µM |
| inactive | > 7 µM | inactive | inactive | inactive | inactive | 7.5 µM | inactive | 3.5 µM | > 7 µM | > 7 µM | inactive | inactive | 3.2 µM | 0.3 µM | inactive | inactive | inactive | CCCc1cc(N2CCNCC2)nc2sc(C(N)=O)c(N)c12 | 35% | 74% | – |
| inactive | > 7 µM | inactive | inactive | inactive | inactive | 1.5 µM | inactive | 2.8 µM | > 7 µM | > 7 µM | inactive | inactive | 1.6 µM | > 7 µM | inactive | inactive | inactive | CCCc1cc(N2CCC(N)CC2)nc2sc(C(N)=O)c(N)c12 | 14% | 81% | IC50 (Insulin receptor): > 7 µM |
| inactive | – | inactive | inactive | inactive | inactive | 6.1 µM | inactive | 22.5 µM | > 7 µM | > 7 µM | inactive | inactive | 13 µM | > 7 µM | inactive | inactive | inactive | CCCc1cc(N2CCCC(O)C2)nc2sc(C(N)=O)c(N)c12 (configuration not stated) | 67% | 93% | IC50 (Insulin receptor): > 7 µM |

Source: ChEMBL document CHEMBL1156029, “The discovery of thienopyridine analogues as potent IkappaB kinase beta inhibitors. Part II” (Bioorg Med Chem Lett, 2009)
